Experimental data from patent US11219627B2, “Clearance of amyloid beta” (priority 2014, dated 2022).
Like-named read-outs stand apart in the source and are kept apart here.

Tests used:
[1] = test system: mild-to-moderate AD patients; test: two-year randomized trial of galantamine and placebo; format: in vivo, human; details: 24 months
α7 nicotinic receptors = target: T1, α7 nicotinic receptors (Rattus norvegicus, UniProt Q05941); details: 1 μM; 1.5 mM choline; cited from earlier work
T1 construct: Primary cultured rat neurons can be depolarized by the application of 1.5 mM choline; endogenous in cells; host or cells: primary cultured rat neurons
T1 sequence (Q05941 23-502): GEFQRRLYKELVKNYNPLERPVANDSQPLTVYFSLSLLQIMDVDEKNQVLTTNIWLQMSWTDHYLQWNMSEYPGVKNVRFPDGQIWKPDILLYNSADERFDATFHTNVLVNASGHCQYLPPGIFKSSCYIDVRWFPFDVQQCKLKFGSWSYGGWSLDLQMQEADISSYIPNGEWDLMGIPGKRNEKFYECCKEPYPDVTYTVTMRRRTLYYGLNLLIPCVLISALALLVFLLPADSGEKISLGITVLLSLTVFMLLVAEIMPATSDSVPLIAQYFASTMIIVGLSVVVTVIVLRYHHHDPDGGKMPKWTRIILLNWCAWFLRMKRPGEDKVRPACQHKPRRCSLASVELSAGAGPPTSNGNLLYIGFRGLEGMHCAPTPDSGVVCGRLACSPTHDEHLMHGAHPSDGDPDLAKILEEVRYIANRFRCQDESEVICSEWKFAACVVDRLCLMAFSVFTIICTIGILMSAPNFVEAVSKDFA

[2] = human patients; cited from earlier work
[3] = test system: Mice with lesions of the nucleus basalis magnocellularis (nBm); details: cited from earlier work
[4] = test system: mild-to-moderate AD patients; details: cited from earlier work
MCI patients = details: cited from earlier work
APdE9 mice = details: cited from earlier work; for insoluble Aβ in mouse brains: 2 months
[5] = test system: mice transgenic for a single, different Swedish APP mutation; details: ten days at 2 mg/kg/day; cited from earlier work
[6] = test system: mice transgenic for an anti-NGF (nerve growth factor) antibody; details: 3.5 mg/kg/day, cited from earlier work
[7] = test system: Primary rat cultured cortical neurons; details: cited from earlier work
[8] = test system: adrenal chromaffin and human neuroblastoma cells; details: 100 to 300 nM; Aβ1-40 10 μM; cited from earlier work
[9] = test system: serum tumor necrosis factor (TNF); details: cited from earlier work
Aβ1-40 = Aβ1-40 (Homo sapiens, UniProt P05067); details: 500 nM; 50 μM Aβ1-40; cited from earlier work
Sequence of Aβ1-40 (P05067 672-711 limits assumed): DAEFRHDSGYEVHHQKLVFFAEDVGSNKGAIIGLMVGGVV

neuroblastoma cells = details: 300 nM; cited from earlier work
β-secretase = details: 300 nM; cited from earlier work
CSF Aβ = details: in vivo; cited from earlier work
nicotinic receptors = details: cited from earlier work
[10] = test system: patients with Alzheimer's disease; test: combined solanezumab phase III studies by standard of care subgroup; format: in vivo, human
Description: The notion that the Alzheimer brain, and the brain which is developing, but has not yet reached the stage of classical Alzheimer's disease with dementia is impaired by both excess Aβ in the region of plaques, and subnormal Aβ concentrations in the ISF bathing healthy tissue away from plaques, has important treatment implications. The clinical outcome measures used to evaluate interventions designed to alter the course of AD depend on the function of intact, healthy synapses. Anti-amyloid agents would not be expected to target plaques and spare healthy tissue, but rather to further decrease ISF Aβ, which is already reduced to about half of normal in patients with AD or classical MCI. […] (J Alz Dis 2013; 33, S111-S120) 3D6, the […] of bapineuzemab, impaired neuronal viability, as have large doses of γ- and β-secretase inhibitors. […] The combined solanezumab phase III studies have been analyzed for solanezumab's performance in patients with and without cholinesterase inhibitor and memantine treatments (called standard of care—SOC). […] ChEls might improve the function of the normal cells, allowing the antibody to show a net benefit because of its binding of Aβ where it is toxic.

[11] = test system: patients with Alzheimer's disease; details: cited from earlier work
CSF Aβ42 = details: single-dose study, dose-dependent; cited from earlier work
mild to moderate AD = details: cited from earlier work; for reduction in loss on the ADAS-cog: mild patients

COc1ccc2c3c1O[C@H]1C[C@@H](O)C=C[C@@]31CCN(C)C2 [galantamine, (4aS,6R,8aS)-5,6,9,10,11,12-hexahydro-3-methoxy-11-methyl-4aH-[1]benzofuro[3a,3,2-ef][2]benzazepin-6-ol]
Disability Assessment in Dementia percent difference versus placebo [1]: 24%
MMSE percent difference versus placebo [1]: 34%
reduction of MMSE deterioration versus placebo ([1]; patients receiving memantine removed): 48%
enhancement of the depolarization caused by choline (α7 nicotinic receptors): 20.6±4.2%
plasma half-life [2]: about 7 hours
additional time remaining in the lighted compartment versus saline ([3]; given during training, optimal performance): about 125 seconds
best dose for memory enhancement ([3]; passive avoidance): 3 mg/kg
MMSE change ([4]; 6 months): 0.15
MMSE difference versus placebo ([4]; 6 months): 0.43
Disability Assessment in Dementia change ([4]; 12 months): −4.55
Disability Assessment in Dementia difference versus placebo ([4]; 12 months): 1.95
MMSE deterioration ([4]; 24 months, patients receiving memantine removed): 1.12 points
Disability Assessment in Dementia change ([4]; 24 months): −8.16
Disability Assessment in Dementia difference versus placebo ([4]; 24 months): 2.65
MMSE change ([4]; 24 months): −1.41
MMSE difference versus placebo ([4]; 24 months): 0.73
mortality less than in placebo patients ([4]; in vivo): 42%
deaths (MCI patients; 24-month study period, all patients entered): 34
reduction of global atrophy (serial MRIs) versus placebo (MCI patients; subpopulation of two-year MCI study): 33%
deaths (MCI patients; within 30 days of stopping galantamine): 14
insoluble Aβ in mouse brains (APdE9 mice; 1 mg/kg/day): significantly reduced insoluble (fibrillar) Aβ1-40
insoluble Aβ in mouse brains (APdE9 mice; 5 mg/kg/day): reduced both Aβ1-40 and Aβ1-42
soluble Aβ species (APdE9 mice; 1 or 5 mg/kg/day): Neither dose significantly affected soluble Aβ species
insoluble or soluble Aβ species [5]: did not reduce insoluble or soluble Aβ species
synaptophysin levels [5]: significantly raise synaptophysin levels
intracellular Aβ deposits ([6]; after 15 days): decreased intracellular Aβ deposits
ChAT activity [6]: restored ChAT activity
protection of neurons against Aβ plus glutamate ([7]; 0.1 μM): intermediate effect which is not statistically significant
protection of neurons against Aβ plus glutamate ([7]; 1.0 μM): protects neurons against Aβ plus glutamate
Aβ1-40-induced apoptosis [8]: reduced Aβ1-40-induced apoptosis
serum tumor necrosis factor (TNF) ([9]; 1 mg/kg, administered prior to endotoxin): significantly reduces serum tumor necrosis factor (TNF)
dose at which survival is improved significantly ([9]; endotoxin): 4 mg/kg
aggregation of Aβ1-40 (Aβ1-40): reduce aggregation
release of Aβ1-40 and Aβ1-42 (neuroblastoma cells): decreased
activity of β-secretase (β-secretase): decreased
effect on CSF Aβ (CSF Aβ): does not lower CSF Aβ

CC12CC3CC(C)(C1)CC(N)(C3)C2 [Memantine]
blockade of nicotinic receptors (nicotinic receptors): potent blocker of nicotinic receptors

Solanezumab: antibody directed at the central portion of Aβ
benefit on the ADAS-cog versus placebo ([10]; cholinesterase inhibitors, without memantine): 2.1 points
excess cognitive deterioration on the ADAS-cog versus placebo ([10]; patients not receiving cholinesterase inhibitors): 3.6 points
excess cognitive deterioration on the ADAS-cog versus placebo ([10]; patients on memantine only): 4.1 points
LS Mean Change (SE) from Baseline to Week 80 in ADAS-Cog14 Scores ([11]; AChEI + Memantine): 9.8 (0.8)
LS Mean Change (SE) from Baseline to Week 80 in ADAS-Cog14 Scores ([11]; AChEI only): 6.8 (0.5)
LS Mean Change (SE) from Baseline to Week 80 in ADAS-Cog14 Scores ([11]; Memantine only): 11.2 (1.9)
LS Mean Change (SE) from Baseline to Week 80 in ADAS-Cog14 Scores ([11]; No SOC): 6.5 (1.3)
rise in CSF Aβ42 (CSF Aβ42): up to 35%
reduction of functional decline (ADCS-ADL) (mild to moderate AD; Expedition II): 19%
reduction in loss on the ADAS-cog (mild to moderate AD; Expedition I): 42%
reduction in loss on the ADAS-cog (mild to moderate AD; Expedition II): 20%
decrease of activities of daily living loss (mild to moderate AD; mild subgroups combined): 17%
slowing of cognitive loss (mild to moderate AD; mild subgroups combined): 34%
